Values after ≈ are worked out from the molar mass of the structure shown. Read-outs that look alike come from different tables or passages of the source. Where a SMILES comes first, the peptide text is derived from it. Where no end group is shown, it is not given here.
Key:
[1] = test system: Enterococcus faecalis 37VRE; type: cell-based
Experimental: (§1) All bacterial strains were stored at −80 °C. The strains were revived using overnight cultures prepared in Tryptic Soy Broth (TSB, OXOID, Basingstoke, UK) and incubated under shaking conditions (MaxQTM6000 incubator shaker, Thermo Scientific, Waltham, MA, USA) at 125 rpm and 37 °C. Next, the purity of the strains was evaluated using enriched media (appropriate for the tested strains). For each experiment, a fresh 18–20 h culture was prepared on Tryptic Soy Agar (TSA, OXOID, Basingstoke, UK) for Gram-positive bacteria and MacConkey Agar (MC, OXOID, Basingstoke) for Gram-negative bacteria, and the samples were then transferred to fresh Mueller–Hinton Broth (MHB, OXOID, Basingstoke, UK), where the density was determined. Each culture was established at 10^8 CFU/mL and then diluted to a starting inoculum of 10^6 CFU/mL.
(§2) The microdilution method was used to measure the antimicrobial activity of amyloids. The test was performed according to the recommendations of EUCAST (ISO 20776–1:2019).
(§3) In 96-well microtiter plates, geometric dilutions of the tested amyloids were prepared from 128 to 0.25 µg/mL in 50 µL MHB. The stock solution (20 mg/mL) of the synthesized amyloids was prepared in MHB. The bacterial suspension prepared in MHB with a density of 10^6 CFU/mL was added to 50 µL of MHB containing the appropriate concentrations of amyloids, thus yielding a final bacterial concentration of 10^5 CFU/mL. Pure MHB was used as a negative control, while the control for bacterial growth was MHB medium in the presence of the strain used in the experiment. Antibiotic solutions were used as positive controls: colistin for Gram-negative bacteria and teicoplanin for Gram-positive bacteria.
(§4) Microtiter plates were incubated at 37 °C for 18 h for S. aureus, S. epidermidis, K. pneumoniae, E. coli, A. baumannii, and E. cloacae and 24 h for E. faecalis and E. faecium. Optimal density (OD600 nm) was measured in a plate reader (ASYS UVM340, BIOCHROM Ltd., Cambridge, UK). The absorbance results were converted to percentages (with respect to growth control) in the normalization process. The MIC (minimal inhibitory concentration) for each peptide was defined as the concentration at which the destruction of at least 90% of the initial inoculum was observed.
(§5) Each experiment was performed in three independent studies for each of the two isolates, and each replicate was performed in three separate wells. […] The MBC value was defined as the lowest concentration at which no growth of the tested strain was observed.
(§6) Linear regression analyses for viability of the HEK-293 cells subjected to ten amyloids, as well as the estimation of IC50 values, were determined in R Statistical Software using the model y = ax + 100% in the function lm from the stats package. The regression analyses for the viability of the bacterial cells and the estimation of MIC were conducted based on a linear mixed-effects model y = ax + 100% + (1|isolate/replicate) in lmer function from R package lme4 [73]. Isolates and replicates were assumed as random effects. The p-values of the determination coefficient and the slope were corrected using the Benjamini–Hochberg procedure for the obtained models.

[2] = test system: Enterococcus faecium 2VRE; type: cell-based
Experimental: as §1, §2, §3, §4, §5, §6

[3] = test system: Klebsiella pneumoniae N111; type: cell-based
Experimental: as §1, §2, §3, §4, §5, §6

[4] = test system: Escherichia coli 1471; type: cell-based
Experimental: as §1, §2, §3, §4, §5, §6

[5] = Thioflavin T fluorescence, fibril/aggregate formation in MHB; type: physicochemical; details: ThT 20 µM, peptide 20 mg/mL in MHB, 37 °C, 24 h, reading every 30 s, ex 450 nm / em 490 nm
Experimental: In the second stage of our research, we decided to determine the propensity of the ten short amyloids (Table 1) to form fibrils under the conditions routinely used to evaluate AMP properties, i.e., upon their incubation in Mueller–Hinton Broth (MHB; for details, see Materials and Methods). These experiments could also allow us to speculate whether the amyloid properties of peptides go along with their antimicrobial activities. To detect the presence of protein fibrils, we used a benzothiazole dye (thioflavin T). Thioflavin T binds to β sheet-rich structures in amyloid aggregates and triggers a characteristic red shift, i.e., an increase in the wavelength in both excitation and emission maximum of the dye. […] The fluorescence spectra of the remaining peptides were indistinguishable from those of the medium itself (Figure S1).
The amyogenic abilities of the tested amyloids were determined in a kinetic reaction using the fluorescent dye thioflavin T (ThT), according to the modified method of Salinas et al.. […] ThT fluorescence intensity readings were performed in 96-well opaque microplates using a SpectraMax GeminiXPS spectrofluorometer at an excitation of λex 450 nm, an emission of λem 490 nm, and a cut-off point of λcut off 475 nm. Measurements were monitored for 24 h every 30 s. at 37 °C. The results were analysed in the SoftMax program. […]

[6] = test system: HEK-293 cells; type: cell-based, human; details: HEK-293, MTT, 24 h exposure, 128 to 0.25 µg/mL; from linear regression y = ax + 100%
Experimental: HEK-293 human embryonic kidney cells (ATCC, CRL-1573) were cultured in DMEM medium supplemented with 10% fetal bovine serum and 1% penicillin/streptomycin solution. The cells were cultured at 37 °C, 5% CO2, until the concentration was about 10^6 per mL. A total of 2 × 10^5 cells/mL were seeded in 96-well tissue microplates (2 × 10^4 cells per well) and were allowed to adhere overnight under the conditions described above. Cytotoxicity tests were carried out on the cells prepared in this way.
Cells were incubated with varying concentrations from 128 to 0.25 µg/mL of the tested amyloid for 24 h exposure. The MTT assay has been previously described. After incubating the cells with the tested amyloids, the MTT reagent (Ck = 0.5 mg/mL) was added to a well of a microtiter plate. After 2 h incubation (37 °C, 5% CO2), the MTT medium was removed and replaced with DMSO, to which was then added Sorensen’s buffer (0.1 M glycine, 0.1 M NaCl; pH 10.5). In the MTT test, the cell viability is directly proportional to the absorbance (570 nm). The control cells for background absorbance contained the growth medium, with MTT only. For MTT analysis, at least three experiments were performed using cells from consecutive passages. […]

| Compound | MIC ([1]; 37VRE) [µg/mL] | MIC ([2]; 2VRE) [µg/mL] | MIC [4] [µg/mL] | also measured |
| --- | --- | --- | --- | --- |
| VGIVYK [Amyloid 10] | 193 | 295 |  |  |
| LIVAGK [Amyloid 3] |  | 301 |  |  |
| VCIVYK [Amyloid 2] | 364 | 177 |  |  |
| VQIVCK [Amyloid 1] | 228 | 196 |  |  |
| VKIVYK [Amyloid 6] |  | 179 | 319 | MIC ([3]; N111): 482 µg/mL |
| AIIGLM [Amyloid 8] | 496 | 280 | 372 | MIC ([3]; N111): 475 µg/mL |
| C[C@@H](O)[C@H](NC(=O)[C@H](Cc1ccccc1)NC(=O)[C@H](CS)NC(=O)[C@H](Cc1c[nH]c2ccccc12)NC(=O)[C@H](CS)NC(=O)[C@@H](N)CCCCN)C(=O)O [Amyloid 5] (H-KCWCFT-OH; N-terminus and C-terminus assumed) |  | 230 (≈ 292 µM) | 405 (≈ 515 µM) | Formation of aggregates (fibrils) in the MHB medium [5]: formed aggregates in the MHB medium |
| LKVKVL [Amyloid 7] | 418 | 326 | 345 |  |
| GGYLLG [Amyloid 9] |  |  |  | IC50 [6]: 171 µg/mL; MIC ([1]; E. faecalis 37VRE, calculated from linear mixed-effects regression model, beyond tested range (max 128 µg/mL)): 389 µg/mL; MIC ([2]; E. faecium 2VRE, calculated from linear mixed-effects regression model, beyond tested range (max 128 µg/mL), MIC = at least 90% destruction): 204 µg/mL; MIC ([3]; K. pneumoniae N111, calculated from linear mixed-effects regression model, beyond tested range (max 128 µg/mL)): 406 µg/mL |

Source: PMC9821130, “Testing Antimicrobial Properties of Selected Short Amyloids” (International Journal of Molecular Sciences, 2023)
